In US7855325B2, “Use of nitric oxide modulators in Agrobacterium-mediated plant transformation” (Monsanto Technology LLC, priority 2003, dated 2010):

Experiments:
[1] = system: corn immature embryos; assay: Callus induction and cell proliferation from corn immature embryos on medium with NO modulators; assay type: cell-based; settings: 0.01 mM SNAP, compared to other treatments and controls
Protocol: This example describes the use of nitric oxide modulators in Agrobacterium-mediated transformation of corn. Corn callus and embryos, with and without previous inoculation in Agrobacterium, were cultured on medium containing NO donors (0.1 mM SNP and 0.01 mM SNAP), a NO-synthase inhibitor (1 mM L-NMMA), and the enantiomer of the inhibitor as negative control (1 mM D-NMMA, which has no effect on NO-synthase). All chemicals were obtained from EMD Biosciences, Inc. (La Jolla, Calif.). Callus and embryos, with and without previous inoculation in Agrobacterium, cultured on MSW57 (Table 1) were used as additional controls. The increase in the percentage of explants expressing GFP recorded on media with NO donors from Day 3 to Day 6 might be due to compound degradation. […] Limiting nitric oxide (NO) production in immature embryos and callus could increase transient GFP expression.

[2] = system: corn immature embryos; assay: Follow-up callus induction experiment, embryos on liquid MSW57 medium with L-NMMA or SNAP; assay type: cell-based; settings: MSW57 plus 0.1 mM SNAP, 14-d in culture
Protocol: To follow up on this callus induction observation, a new experiment was set up where a typical embryo harvest was done from several ears and the embryos were distributed onto control medium MSW57, MSW57 plus 1.0 mM L-NMMA or 0.1 mM S-nitroso-N-acetylpenicillamine (SNAP, a NO donor compound). In this experiment the embryos were placed on a dark Millipore filter set on top of two pieces of felt.

With `CC(=O)N[C@H](C(=O)O)C(C)(C)SN=O` (racemic) [SNAP, S-nitroso-N-acetylpenicillamine] the “cell proliferation of embryo-derived callus” value [1] was “significantly higher” and the “embryos with callus induction versus control” value [2] was “more embryos with callus induction than the control”.
